In US6525059B1, “Substituted pyrazoles as p38 kinase inhibitors” (G. D. Searle & Company, priority 1998, dated 2003):
pIC50: −log10 of the molar value. Read-outs that look alike come from different tables or passages of the source.

How the values were obtained:
TNF-α = experiment: LPS stimulation of TNF production by U937 cells; assay type: cell-based, human; details: for pIC50 / inhibition at 1 µM: Homo sapiens; for inhibition at 1 µM: U-937, @ 1.0 uM, read-out: U937 Cell % inhib @ conc.
Protocol: Fifty million cells in 100 ml media were induced to terminal monocytic differentiation by 24 hour incubation with 20 ng/ml phorbol 12-myristate 13-acetate (Sigma). The cells were washed by centrifugation (200×g for 5 min) and resuspended in 100 ml fresh medium. After 24-48 hours, the cells were harvested, centrifuged, and resuspended in culture medium at 2 million cells/ml.
Compounds were prepared as 10 mM stock solutions in DMSO and diluted in culture medium to yield a final DMSO concentration of 0.1% in the cell assay. LPS (E coli, 100 ng/ml final concentration) was then added at a volume of 0.02 ml. After 4 hour incubation at 37° C., the amount of TNF-α released in the culture medium was quantitated by ELISA. Inhibitory potency is expressed as IC50 (μM).
In vitro whole cell assay for measuring the ability of the compounds to inhibit TNF production in human U937 cells stimulated with LPS are shown in the column identified as: […]

human p38 kinase alpha = biological target: T1, human p38 kinase alpha (Homo sapiens, UniProt Q16539); experiment: p38 kinase in vitro assay, phosphorylation of biotinylated PHAS-I with gamma 32P-ATP; assay type: biochemical
T1 construct: The coding region of the human p38a cDNA was obtained by PCR-amplification from RNA isolated from the human monocyte cell line THP.1; GST (N); made in house; host or cells: E. coli DH10B
T1 sequence (Q16539 whole entry): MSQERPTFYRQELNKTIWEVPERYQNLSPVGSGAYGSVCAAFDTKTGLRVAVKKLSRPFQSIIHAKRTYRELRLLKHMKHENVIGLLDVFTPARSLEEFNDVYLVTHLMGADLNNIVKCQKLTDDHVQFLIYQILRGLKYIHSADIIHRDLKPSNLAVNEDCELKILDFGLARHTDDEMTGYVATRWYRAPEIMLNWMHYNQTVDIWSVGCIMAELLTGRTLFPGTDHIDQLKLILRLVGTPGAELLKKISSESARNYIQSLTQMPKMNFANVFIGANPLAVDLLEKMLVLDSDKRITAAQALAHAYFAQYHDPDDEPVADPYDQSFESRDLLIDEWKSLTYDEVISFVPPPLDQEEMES
Method in brief: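 MKK6-activated human p38α phosphorylates biotinylated PHAS-I with γ-32P-ATP in 25 mM HEPES pH 7.5, 10 mM Mg acetate, 50 μM unlabeled ATP, 1% DMSO, 30 °C for 1 h or overnight. Compounds at 100–0.001 μM (10-fold steps, triplicate); substrate captured on streptavidin filter plates and counted by scintillation.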

[1] = U-937, LPS-stimulated U937 cells, read-out: U937 Cell Assay IC50
[2] = p38α in vitro, PHAS-I assay procedure, read-out: p38^1 IC50
[3] = U-937, LPS-stimulated U937 cells, read-out: U937 IC50
[4] = read-out: P38 alpha kinase IC50

Cc1ccc(-c2[nH]nc(C)c2-c2ccncc2)cc1 [Example A-5]
pIC50 (TNF-α; [1]): 6.56

Cc1cccc(-c2n[nH]cc2-c2ccnc(C)c2)c1 [Example A-143, 2-methyl-4-[3-(3-methylphenyl)-1H-pyrazol-4-yl]pyridine]
pIC50 (human p38 kinase alpha; activated human p38 kinase alpha, PHAS-I substrate, 50 μM unlabeled ATP, read-out: p38 kinase IC50): > 7.00 | pIC50 (TNF-α; [1]): 6.52

CN(C)CCn1cc(-c2ccnc(NCc3ccc(F)cc3)c2)c(-c2ccc(F)cc2)n1 [Example A-274, 4-[1-[2-(dimethylamino)ethyl]-3-(4-fluorophenyl)-1H-pyrazol-4-yl]-N-[(4-fluorophenyl)methyl]-2-pyridinamine]
pIC50 (human p38 kinase alpha; [2]): > 7.00 | pIC50 (TNF-α; [3]): 6.04

CN(C)CCn1cc(-c2ccnc(CCc3ccc(F)cc3)c2)c(-c2ccc(F)cc2)n1 [Example A-275, 3-(4-fluorophenyl)-4-[2-[2-(4-fluorophenyl)ethyl]-4-pyridinyl]-N,N-dimethyl-1H-pyrazole-1-ethanamine]
pIC50 (human p38 kinase alpha; [2]): 4.99 | pIC50 (TNF-α; [3]): < 5.00

CCN(CC)CCn1cc(-c2ccnc(F)c2)c(-c2ccc(F)cc2)n1 [Example A-278, N,N-diethyl-3-(4-fluorophenyl)-4-(2-fluoro-4-pyridinyl)-1H-pyrazole-1-ethanamine]
pIC50 (human p38 kinase alpha; [2]): 6.55 | pIC50 (TNF-α; [3]): 5.64

CCN(CC)CCn1cc(-c2ccnc(NCc3ccc(F)cc3)c2)c(-c2ccc(F)cc2)n1 [Example A-279, 4-[1-[2-(diethylamino)ethyl]-3-(4-fluorophenyl)-1H-pyrazol-4-yl]-N-[(4-fluorophenyl)methyl]-2-pyridinamine]
pIC50 (human p38 kinase alpha; [2]): 8.30 | pIC50 (TNF-α; [3]): 6.15

OCCCNc1cc(-c2c[nH]nc2-c2ccc(F)cc2)ccn1 [Example A-282, 3-[[4-[3-(4-fluorophenyl)-1H-pyrazol-4-yl]-2-pyridinyl]amino]-1-propanol]
pIC50 (human p38 kinase alpha; [2]): 7.35 | pIC50 (TNF-α; [3]): 7.01

CCN(CC)CCn1cc(-c2ccncc2)c(-c2ccc(F)cc2)n1 [Example A-284, N,N-diethyl-3-(4-fluorophenyl)-4-(4-pyridinyl)-1H-pyrazole-1-ethanamine]
pIC50 (human p38 kinase alpha; [2]): 6.01 | pIC50 (TNF-α; [3]): 6.29

Fc1ccc(-c2n[nH]c(NCCCN3CCOCC3)c2-c2ccncc2)cc1 [Example A-286, N-[5-(4-fluorophenyl)-4-(4-pyridinyl)-1H-pyrazol-3-yl]-4-morpholinepropanamine]
pIC50 (human p38 kinase alpha; [2]): 7.24 | pIC50 (TNF-α; [3]): 7.05

CN(C)CCCNc1[nH]nc(-c2ccc(F)cc2)c1-c1ccncc1 [Example A-287, N′-[5-(4-fluorophenyl)-4-(4-pyridinyl)-1H-pyrazol-3-yl]-N,N-dimethyl-1,3-propanediamine]
pIC50 (human p38 kinase alpha; [2]): 7.39 | pIC50 (TNF-α; [3]): 6.57

C#CCNc1[nH]nc(-c2ccc(F)cc2)c1-c1ccncc1 [Example A-288, 5-(4-fluorophenyl)-N-2-propynyl-4-(4-pyridinyl)-1H-pyrazol-3-amine]
pIC50 (human p38 kinase alpha; [2]): 7.77 | pIC50 (TNF-α; [3]): 6.52

OCCn1ncc(-c2ccnc(NCc3ccc(F)cc3)c2)c1-c1ccc(F)cc1 [Example A-290, 5-(4-fluorophenyl)-4-[2-[[(4-fluorophenyl)methyl]amino]-4-pyridinyl]-1H-pyrazole-1-ethanol]
pIC50 (TNF-α; [3]): 5.22

Fc1ccc(-c2n[nH]cc2-c2ccnc3ccccc23)cc1 [Example A-291]
pIC50 (human p38 kinase alpha; [2]): 6.41 | pIC50 (TNF-α; [3]): 5.95

COC(=O)CNc1n[nH]c(-c2ccc(F)cc2)c1-c1ccncc1 [Example A-292, N-[5-(4-fluorophenyl)-4-(4-pyridinyl)-1H-pyrazol-3-yl]glycine methyl ester]
pIC50 (human p38 kinase alpha; [2]): 5.94 | pIC50 (TNF-α; [3]): < 5.00

C#CCn1cc(-c2ccncc2)c(-c2ccc(F)cc2)n1 [Example A-294, 4-[3-(4-fluorophenyl)-1-(2-propynyl)-1H-pyrazol-4-yl]pyridine]
pIC50 (human p38 kinase alpha; [2]): 7.82 | pIC50 (TNF-α; [3]): 6.30

C#CCn1ncc(-c2ccncc2)c1-c1ccc(F)cc1 [Example A-295, 4-[5-(4-fluorophenyl)-1-(2-propynyl)-1H-pyrazol-4-yl]pyridine]
pIC50 (human p38 kinase alpha; [2]): 5.12 | pIC50 (TNF-α; [3]): < 5.00

O=C(NCc1[nH]nc(-c2ccc(F)cc2)c1-c1ccncc1)c1cccs1 [Example B-0193]
inhibition at 1 µM (TNF-α): 6%

O=C(NCc1[nH]nc(-c2ccc(F)cc2)c1-c1ccncc1)c1cccs1 [Example B-0208]
pIC50 (TNF-α; U-937, TNF production, LPS-stimulated human U937 cells, read-out: U937 Cell IC50): < 6.00

O=S(=O)(NCc1[nH]nc(-c2ccc(F)cc2)c1-c1ccncc1)c1ccccc1Br [Example B-0234]
inhibition at 1 µM (TNF-α): 68%

O=S(=O)(NCc1[nH]nc(-c2ccc(F)cc2)c1-c1ccncc1)c1ccc(C(F)(F)F)cc1 [Example B-0237]
inhibition at 1 µM (TNF-α): 60%

Cc1ccccc1S(=O)(=O)NCc1[nH]nc(-c2ccc(F)cc2)c1-c1ccncc1 [Example B-0245]
inhibition at 1 µM (TNF-α): 24%

Cc1noc(C)c1C(=O)NCc1[nH]nc(-c2ccc(F)cc2)c1-c1ccncc1 [Example B-0304]
inhibition at 1 µM (TNF-α): 28%

C[C@@H](NC(=O)c1ccccn1)c1[nH]nc(-c2ccc(F)cc2)c1-c1ccncc1 [Example B-0379]
inhibition at 1 µM (TNF-α): 24%

C[C@@H](NS(=O)(=O)c1ccccc1)c1[nH]nc(-c2ccc(F)cc2)c1-c1ccncc1 [Example B-0386]
inhibition at 1 µM (TNF-α): 54%

C[C@@H](NS(=O)(=O)/C=C/c1ccccc1)c1[nH]nc(-c2ccc(F)cc2)c1-c1ccncc1 [Example B-0388]
inhibition at 1 µM (TNF-α): 36%

C[C@@H](NC(=O)N(C)c1ccccc1)c1[nH]nc(-c2ccc(F)cc2)c1-c1ccncc1 [Example B-0409]
inhibition at 1 µM (TNF-α): 30%

CCN(CC)C(=O)N[C@H](C)c1[nH]nc(-c2ccc(F)cc2)c1-c1ccncc1 [Example B-0420]
inhibition at 1 µM (TNF-α): 49%

COc1ccc(NC(=O)N[C@H](C)c2[nH]nc(-c3ccc(F)cc3)c2-c2ccncc2)c(OC)c1 [Example B-0422]
inhibition at 1 µM (TNF-α): 40%

C[C@@H](NS(=O)(=O)c1ccc(Br)cc1)c1[nH]nc(-c2ccc(F)cc2)c1-c1ccncc1 [Example B-0432]
inhibition at 1 µM (TNF-α): 89%

C[C@@H](NS(=O)(=O)c1ccc(Cl)cc1)c1[nH]nc(-c2ccc(F)cc2)c1-c1ccncc1 [Example B-0433]
inhibition at 1 µM (TNF-α): 92%

C[C@@H](NS(=O)(=O)c1ccc2ccccc2c1)c1[nH]nc(-c2ccc(F)cc2)c1-c1ccncc1 [Example B-0440]
inhibition at 1 µM (TNF-α): 63%

C[C@@H](NS(=O)(=O)Cc1ccccc1[N+](=O)[O-])c1[nH]nc(-c2ccc(F)cc2)c1-c1ccncc1 [Example B-0442]
inhibition at 1 µM (TNF-α): 91%

C[C@@H](NS(=O)(=O)c1cccc(Cl)c1Cl)c1[nH]nc(-c2ccc(F)cc2)c1-c1ccncc1 [Example B-0445]
inhibition at 1 µM (TNF-α): 83%

C[C@@H](NS(=O)(=O)c1ccccc1Br)c1[nH]nc(-c2ccc(F)cc2)c1-c1ccncc1 [Example B-0454]
inhibition at 1 µM (TNF-α): 80%

C[C@@H](NS(=O)(=O)c1cccc(Cl)c1)c1[nH]nc(-c2ccc(F)cc2)c1-c1ccncc1 [Example B-0462]
inhibition at 1 µM (TNF-α): 97%

C[C@@H](NS(=O)(=O)c1cc(Cl)cc(Cl)c1)c1[nH]nc(-c2ccc(F)cc2)c1-c1ccncc1 [Example B-0464]
inhibition at 1 µM (TNF-α): 91%

Cc1cccc(Cl)c1S(=O)(=O)N[C@H](C)c1[nH]nc(-c2ccc(F)cc2)c1-c1ccncc1 [Example B-0467]
inhibition at 1 µM (TNF-α): 77%

Cc1ccc(C(=O)N[C@H](C)c2[nH]nc(-c3ccc(F)cc3)c2-c2ccncc2)cc1 [Example B-0494]
U937 Cell % inhib @ conc. (TNF-α; @ 1.0 uM): 30.0% @ 1.0 uM

C[C@@H](NC(=O)c1cccc(C#N)c1)c1[nH]nc(-c2ccc(F)cc2)c1-c1ccncc1 [Example B-0499]
inhibition at 1 µM (TNF-α): 37%

C[C@@H](NC(=O)c1cccc(F)c1F)c1[nH]nc(-c2ccc(F)cc2)c1-c1ccncc1 [Example B-0518]
inhibition at 1 µM (TNF-α): 64%

C[C@@H](NC(=O)c1ccc(F)cc1F)c1[nH]nc(-c2ccc(F)cc2)c1-c1ccncc1 [Example B-0524]
inhibition at 1 µM (TNF-α): 77%

Cc1noc(C)c1C(=O)N[C@H](C)c1[nH]nc(-c2ccc(F)cc2)c1-c1ccncc1 [Example B-0529]
inhibition at 1 µM (TNF-α): 73%

NC(=O)NC(Cc1ccccc1)c1[nH]nc(-c2ccc(F)cc2)c1-c1ccncc1 (stereo not drawn) [Example B-0769]
pIC50 (human p38 kinase alpha; [4]): 4.90

Cc1noc(C)c1S(=O)(=O)NCCCc1[nH]nc(-c2ccc(F)cc2)c1-c1ccncc1 [Example B-1281]
U937 Cell % inhib @ conc. (uM) (TNF-α; @ 1.0 uM, TNF production, LPS-stimulated U937 cells): 8.0% @ 1.0 uM

O=C(NCCCc1[nH]nc(-c2ccc(F)cc2)c1-c1ccncc1)c1ccccc1Br [Example B-1355]
pIC50 (human p38 kinase alpha; [4]): 6.15

N#Cc1cccc(C(=O)N2CCC(c3[nH]nc(-c4ccc(F)cc4)c3-c3ccncc3)CC2)c1 [Example B-1396]
pIC50 (human p38 kinase alpha; [4]): 6.26

O=C(c1ccccc1Br)N1CCC(c2[nH]nc(-c3ccc(F)cc3)c2-c2ccncc2)CC1 [Example B-1398]
pIC50 (human p38 kinase alpha; [4]): 6.04

O=C(O)CCc1[nH]nc(-c2ccc(F)cc2)c1-c1ccncc1 [Example C-135, 4-(4-(4-PYRIDYL)-3-(4-FLUOROPHENYL)PYRAZOLYL)PROPIONIC ACID]
pIC50 (human p38 kinase alpha; [4]): 5.22

Clc1ccc(-c2n[nH]c(C3CCNCC3)c2-c2ccncn2)cc1 [Example C-136]
pIC50 (human p38 kinase alpha; [4]): 7.49
